Source: patent publication US20260070887A1 (Shenzhen Zhongge Biological Technology Co., Ltd., priority 2022, published 2026)
Like-named read-outs stand apart in the source and are kept apart here.

Assays:
PK study in ICR mice = type: in vivo, mouse; details: plasma, route and dose not given
How it was run: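 Fasted ICR mice (3/group) dosed intravenously or by oral gavage; plasma sampled up to 24 h. Plasma levels measured by LC-MS/MS after protein precipitation. T½, AUC0-t, CL, Vss and F derived by noncompartmental analysis.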

A2780 cells = test: A2780 cell anti-proliferation assay; type: cell-based; details: 6 days, Cell Titer-Glo
Description: A2780 (ECACC) cells were cultured in RPMI-1640 complete medium (Gibco, A1049101) containing 10% fetal bovine serum (Gibco, 10099-141C), 100 U penicillin and 100 μg/mL streptomycin (Gibco, 15140-122). The Promega kit Cell Titer-Glo (Promega: G7572) was used in this method for test.
A2780 cells were cultured in T75 cell flasks (Corning, 430641) and the cells were placed in a 37° C., 5% CO2 incubator. Cells were passaged when reaching a cell density of 70%-80%, once every five days. To perform the experiment, the test compounds were dissolved in DMSO to prepare a 10 mM stock solution, and the test compounds were added to the 384-well cell test plate (Corning, 3765) at the predetermined concentration (19.5 nM-[…]) using ECHO. A2780 cells were digested and 4000 cells (60 μL medium) were seeded per well in the test plate. The 384-well plate was then centrifuged at 500 rpm for 1 minute, and then placed in a 37° C., 5% CO2 incubator for 6 days of cultivation. Six days later, the cell culture plate was equilibrated for 10 minutes at room temperature, 25 μL of Cell Titer-Glo was added to each well, and the mixture was shaken and mixed well and let stand for 5 minutes. The luminescence values for samples in various wells were read using a microplate reader in Luminescence mode.
The percentage of inhibition of A2780 cell proliferation by the test compound at each concentration was calculated by comparing with the values of the control group (0.2% DMSO). The IC50 values of the compounds were obtained by concentration-inhibition rate nonlinear regression analysis of the test compounds using GraphPad Prism 9.

KIF18A = KIF18A (Homo sapiens (Human), UniProt Q8NI77); test: KIF18A ATPase activity under tubulin stimulation (ADP-Glo assay); type: biochemical; details: KIF18A 30 nM, ATP 150 μM, pig microtubules
[1] = both sexes, mouse, read-out: AUC
[2] = both sexes, mouse, read-out: Cmax

Chain of KIF18A (Q8NI77 whole entry): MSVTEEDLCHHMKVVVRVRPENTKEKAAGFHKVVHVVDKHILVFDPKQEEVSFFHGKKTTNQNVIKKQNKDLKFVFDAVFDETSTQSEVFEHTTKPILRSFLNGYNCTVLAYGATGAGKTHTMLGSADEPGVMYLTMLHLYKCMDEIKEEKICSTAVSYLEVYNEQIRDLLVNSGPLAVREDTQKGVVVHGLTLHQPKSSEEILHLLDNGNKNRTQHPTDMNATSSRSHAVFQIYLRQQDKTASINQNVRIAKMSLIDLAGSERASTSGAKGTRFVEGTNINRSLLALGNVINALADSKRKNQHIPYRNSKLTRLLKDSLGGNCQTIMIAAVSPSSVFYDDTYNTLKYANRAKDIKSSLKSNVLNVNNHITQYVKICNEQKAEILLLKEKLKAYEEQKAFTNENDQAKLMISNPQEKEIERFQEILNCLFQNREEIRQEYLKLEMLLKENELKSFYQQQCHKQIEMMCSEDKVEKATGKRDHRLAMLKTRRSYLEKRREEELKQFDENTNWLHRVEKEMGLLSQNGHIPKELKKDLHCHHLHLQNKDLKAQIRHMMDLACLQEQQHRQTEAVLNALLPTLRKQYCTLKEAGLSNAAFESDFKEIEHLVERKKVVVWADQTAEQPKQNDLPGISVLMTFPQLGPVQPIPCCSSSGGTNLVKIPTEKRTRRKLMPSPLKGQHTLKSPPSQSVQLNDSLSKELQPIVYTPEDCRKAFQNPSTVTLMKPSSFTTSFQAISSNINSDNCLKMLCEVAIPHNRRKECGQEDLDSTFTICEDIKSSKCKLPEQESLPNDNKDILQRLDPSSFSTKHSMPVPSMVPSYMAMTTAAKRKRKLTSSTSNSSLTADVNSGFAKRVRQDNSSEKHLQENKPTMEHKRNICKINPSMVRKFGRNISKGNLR
Chain of KIF18A (P02550 whole entry partner): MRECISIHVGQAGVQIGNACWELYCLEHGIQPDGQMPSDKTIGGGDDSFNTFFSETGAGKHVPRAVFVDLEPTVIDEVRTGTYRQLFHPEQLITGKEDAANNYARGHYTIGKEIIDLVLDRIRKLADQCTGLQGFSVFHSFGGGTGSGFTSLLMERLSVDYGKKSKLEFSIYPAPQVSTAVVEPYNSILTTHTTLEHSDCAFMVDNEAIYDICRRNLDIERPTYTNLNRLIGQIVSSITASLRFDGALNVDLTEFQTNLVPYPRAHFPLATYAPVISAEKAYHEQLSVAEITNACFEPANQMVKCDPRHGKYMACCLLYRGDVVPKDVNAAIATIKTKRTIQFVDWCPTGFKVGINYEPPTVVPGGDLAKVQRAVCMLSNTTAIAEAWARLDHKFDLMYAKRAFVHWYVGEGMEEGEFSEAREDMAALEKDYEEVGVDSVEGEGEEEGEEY
Chain of KIF18A (P02554 whole entry partner): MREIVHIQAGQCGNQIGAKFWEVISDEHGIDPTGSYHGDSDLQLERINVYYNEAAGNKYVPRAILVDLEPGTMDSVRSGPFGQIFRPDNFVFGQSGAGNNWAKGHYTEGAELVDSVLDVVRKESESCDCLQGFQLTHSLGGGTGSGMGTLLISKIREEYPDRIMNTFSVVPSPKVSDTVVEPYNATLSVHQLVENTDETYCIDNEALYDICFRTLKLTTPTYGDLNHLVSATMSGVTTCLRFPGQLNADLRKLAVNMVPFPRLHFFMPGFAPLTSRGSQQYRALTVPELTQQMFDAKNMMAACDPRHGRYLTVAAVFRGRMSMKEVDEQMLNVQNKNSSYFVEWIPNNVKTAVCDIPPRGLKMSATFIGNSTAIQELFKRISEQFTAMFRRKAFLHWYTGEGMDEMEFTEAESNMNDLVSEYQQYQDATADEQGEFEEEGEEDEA

Structure (SMILES)	AUC (PK study in ICR mice; [1]) [ng·h/mL]	Cmax (PK study in ICR mice; [2]) [ng/mL]	IC50 (A2780 cells; Homo sapiens, A2780, 144 h) [nM]	IC50 (KIF18A) [nM]	AUC (PK study in ICR mice) [ng·h/mL]	Cmax (PK study in ICR mice) [ng/mL]	IC50 (A2780 cells) [nM]
CC1(C)Cn2c(cc3c(NC(=O)c4ccc(NS(=O)(=O)CCO)cc4N4CCC5(CC4)CC5)ccc(C#N)c32)CO1 [Compound 392, N-(6-cyano-3,3-dimethyl-3,4-dihydro-1H-[1,4]oxazino[4,3-a]indol-9-yl)-4-((2-hydroxyethyl)sulfonamido)-2-(6-azaspiro[2.5]oct-6-yl)benzamide]	50800	5080	6100	≤ 50			
N#Cc1ccc(NC(=O)c2ccc(NS(=O)(=O)CCO)cc2N2CCC3(CC2)CC3)c2cc3n(c12)CCC(F)(F)C3 [Example 379]				≤ 50	36456	4043	5300
O=C(Nc1cccc2c1cc1n2CC2CCC1O2)c1ccc(NS(=O)(=O)CCO)cc1N1CCC(=C(F)F)CC1 (stereo not drawn) [Compound 398, 2-(4-(difluoromethylene)piperidin-1-yl)-4-((2-hydroxyethyl)sulfonamido)-N-(7,8,9,10-tetrahydro-6H-7,10-epoxyazeto[1,2-a]indol-1-yl)benzamide]				50 to 500	6992	1410	> 10000
O=C(Nc1cccc2c1cc1n2CCOC1)c1ccc(NS(=O)(=O)CCO)cc1N1CCC(=C(F)F)CC1 [Example 319, 2-(4-difluoromethylene)piperidin-1-yl-N-(3,4-dihydro-1H-[1,4]oxazino[4,3-a]indol-9-yl)-4-((2-hydroxyethyl)sulfonamide) benzamide]				≤ 50	16534	3717	> 10000
CC1(O)CCCn2c1cc1c(NC(=O)c3ccc(NS(=O)(=O)CCO)cc3N3CCC4(CC3)CC4)cccc12 (stereo not drawn) [Example 372]				≤ 50			> 10000
N#Cc1ccc(NC(=O)c2ccc(NS(=O)(=O)CCO)cc2N2CCC(=C(F)F)CC2)c2cc3n(c12)CCC(F)(F)C3 [Example 378]				50 to 500	48150	5253	7700
N#Cc1ccc(NC(=O)c2ccc(NS(=O)(=O)CCO)cc2N2CCC3(CC2)CC3)c2cc3n(c12)CCOC3 [Example 310, N-(6-cyano-3,4-dihydro-1H-[1,4]oxazino[4,3-a]indol-9-yl)-4-((2-hydroxyethyl)sulfonamido)-2-(6-azaspiro[2.5]oct-6-yl)benzamide]	12600	3030	> 10000	≤ 50			
CC1Cn2c(cc3c(NC(=O)c4ccc(NS(=O)(=O)CCO)cc4N4CCC5(CC4)CC5)cccc32)C(C)O1 (single isomer, unassigned) [Compound 312-P3, N-(1,3-dimethyl-3,4-dihydro-1H-[1,4]oxazino[4,3-a]indol-9-yl)-4-((2-hydroxyethyl)sulfonamido)-2-(6-azaspiro[2.5]oct-6-yl)benzamide]	32400	2980	> 10000	50 to 500			
COc1ccc(NC(=O)c2ccc(NS(=O)(=O)CCO)cc2N2CCC(=C(F)F)CC2)c2cc3n(c12)CC(C)(C)OC3 [Example 465, 2-(4-(difluoromethylene)piperidin-1-yl)-4-((2-hydroxyethyl)sulfonamido)-N-(6-methoxy-3,3-dimethyl-3,4-dihydro-1H-[1,4]oxazinyl[4,3-a]indol-9-yl)benzamide]				50 to 500	72111	5780	> 10000
CC1(C)Cn2c(nc3c(NC(=O)c4ccc(NS(=O)(=O)CCO)cc4N4CCC(=C(F)F)CC4)cccc32)CO1 [Compound 394, 2-(4-(difluoromethylene)piperidin-1-yl)-N-(3,3-dimethyl-3,4-dihydro-1H-benzo[4,5]imidazo[2,1-c][1,4]oxazin-9-yl)-4-((2-hydroxyethyl)sulfonamido)benzamide]	47800	4220	> 10000	≤ 50			
Nc1cc(NS(=O)(=O)CCO)cc(N2CCC3(CC2)CC3)c1C(=O)Nc1cccc(N2CCC(F)(F)CC2)c1 [Example 1, 2-amino-N-(3-(4,4-difluoropiperidin-1-yl)phenyl)-4-((2-hydroxyethyl)sulfonamide)-6-(6-azaspiro[2.5]octan-6-yl)benzamide]				≤ 50			
CC1(C)Cn2c(cc3c(NC(=O)c4ccc(NS(=O)(=O)CCO)cc4N4CCC5(CC4)CC5)ccc(OC(F)F)c32)CO1 [Example 523]				50 to 500	99384	7088	
CC1(C)Cn2c(cc3c(NC(=O)c4ccc(NS(=O)(=O)CCO)cc4N4CCC5(CC4)CC5)cccc32)CO1 [Example 371, N-(3,3-dimethyl-3,4-dihydro-1H-[1,4]oxazino[4,3-a]indol-9-yl)-4-(2-hydroxyethylsulfonamido)-2-(6-azaspiro[2.5]octan-6-yl)benzamide]	51200	3750	> 10000	≤ 50			
COc1ccc(NC(=O)c2ccc(NS(=O)(=O)CCO)cc2N2CCC3(CC2)CC3)c2cc3n(c12)CC(C)(C)OC3 [Example 455, 4-((2-hydroxyethyl)sulfonamido)-N-(6-methoxy-3,3-dimethyl-3,4-dihydro-1H-[1,4]oxazinyl[4,3-a]indol-9-yl)-2-(6-azaspiro[2.5]oct-6-yl)benzamide]	71000	5590	> 10000	50 to 500			
CC1(C)OCCn2c1cc1c(NC(=O)c3ccc(NS(=O)(=O)CCO)cc3N3CCC(=C(F)F)CC3)cccc12 [Compound 395, 2-(4-(difluoromethylene)piperidin-1-yl)-N-(1,1-dimethyl-3,4-dihydro-1H-[1,4]oxazino[4,3-a]indol-9-yl)-4-((2-hydroxyethyl)sulfonamido)benzamide]			> 10000	≤ 50			
N#Cc1ccc(NC(=O)c2ccc(NS(=O)(=O)CCO)cc2N2CCC(=C(F)F)CC2)c2cc3n(c12)CCOC3 [Example 364, N-(6-cyano-3,4-dihydro-1H-[1,4]oxazino[4,3-a]indol-9-yl)-2-(4-(difluoromethylene)piperidin-1-yl)-4-((2-hydroxyethyl)sulfonamido)benzamide]			9400	≤ 50			
CNc1cc(NS(=O)(=O)CCO)cc(N2CCC3(CC2)CC3)c1C(=O)Nc1cc(C)nc(N2CCC(F)(F)CC2)n1 [Example 4, N-(2-(4,4-difluoropiperidin-1-yl)-6-methylpyrimidin-4-yl)-4-(2-hydroxyethylsulfonamide)-2-methylamino-6-(6-azaspiro[2.5]octan-6-yl)benzamide]				50 to 500			8300
COC1c2cc3c(NC(=O)c4ccc(NS(=O)(=O)CCO)cc4N4CCC5(CC4)CC5)cccc3n2CCC1(F)F (single isomer, unassigned) [Example 340-P2]				≤ 50			> 10000
CC1Cn2c(cc3c(NC(=O)c4ccc(NS(=O)(=O)CCO)cc4N4CCC5(CC4)CC5)cccc32)C(C)O1 (single isomer, unassigned) [Compound 312-P2A, N-(1,3-dimethyl-3,4-dihydro-1H-[1,4]oxazino[4,3-a]indol-9-yl)-4-((2-hydroxyethyl)sulfonamido)-2-(6-azaspiro[2.5]oct-6-yl)benzamide]				≤ 50			6500
